# Experimental data reported in PMC10269622, “Blapstin, a Diapause-Specific Peptide-Like Peptide from the Chinese Medicinal Beetle Blaps rhynchopetera, Has Antifungal Function” (Microbiology Spectrum, 2023).
# Bridge positions count the residues as written; N and C are the ends. Ends that are not written are not given here.
# Tests used:
# [1] = tested on: established biofilms of C. albicans ATCC 10231; assay: Biofilm eradication assay (crystal violet); type: cell-based, Candida albicans; conditions: 24 h preformed biofilm, 0.5× to 8× MIC, 37°C, absorbance at 600 nm
# Protocol: First, 100 μL of C. albicans ATCC 10231 suspension (1 × 10^6 CFU/mL) was added to each well of a sterile 96-well plate. The plate was incubated at 37°C for 24 h to make the biofilm adhere to the walls and washed three times with PBS. Next, 100 μL of serial dilutions of blapstin (0.5×, 1×, 2×, 4×, and 8× MIC) prepared using YM medium was added to the plate, followed by incubation at 37°C for 24 h. Fluconazole at 10 μM and clotrimazole at 10 μΜ were used as a positive control, and sterile 0.9% NaCl was used as a negative control. After incubation, the liquid in the plate was discarded and washed three times with PBS, followed by the addition of 1% crystal violet solution to each well and incubation at room temperature for 10 min. Finally, the plate was washed three times with PBS, and 100 μL of 95% ethanol was added per well. The percentage of biofilm removal was estimated by measuring the absorbance at 600 nm.
# [2] = tested on: trypsin; assay: Effect of protease on antifungal activity; type: in vitro ADME; conditions: 0.5 μL of 10 mg/mL trypsin with 20 μL of 225 μM peptide, 37°C, 1 h; read-out paper disk assay against C. albicans
# Protocol: (§1) (iii) Effects of protease. In terms of the influence of protease on the antifungal activity of blapstin, trypsin and chymotrypsin were selected for the experiment, and 0.5 μL of a 10-mg/mL concentration of proteases (including trypsin and chymotrypsin) and (20 μL(225 μM) of blapstin were mixed and incubated at 37°C for 1 h ([64]). Colistin E was used as the positive control, and 1.5% NaCl was used as the negative control. Then, these samples were transferred to the paper disks in the YM solid medium with C. albicans and incubated at 37°C for 18 h for the assay of antifungal activity.
# [3] = tested on: chymotrypsin; assay: Effect of protease on antifungal activity; type: in vitro ADME; conditions: 0.5 μL of 10 mg/mL chymotrypsin with 20 μL of 225 μM peptide, 37°C, 1 h; read-out paper disk assay against C. albicans
# Protocol: as §1
# [4] = Stability in human plasma (residual antifungal activity, inhibition zone); type: in vitro ADME; conditions: 225 μM in 100% human plasma
# Protocol: The stability of blapstin in human plasma was assessed using a previously described method ([67]). Blapstin (225 μM) was mixed with 100% human plasma and incubated at 37°C for 0, 2, 4, 6, 8, 10, 15, and 24 h, respectively. Then, the residual antifungal activity against C. albicans ATCC 10231 for each incubation period was evaluated using an inhibition zone assay. Nutrient YM solid medium was coated with C. albicans ATCC 10231, and then 10-μL aliquots of the plasma-peptide mixture were added to sterile, 5-mm-diameter filter paper disks placed on the medium. After 24 h of incubation, the diameter of the inhibition zone against C. albicans ATCC 10231 was measured in triplicate.
# [5] = tested on: C. albicans ATCC 10231; assay: Cell membrane potential changes, DiSC3(5) staining; type: cell-based, Candida albicans; conditions: 16× MIC, 8× MIC and 1× MIC; 0.5 μM DiSC3(5), 100 mM KCl, measured for 60 min; dose-dependent; weaker than 10 μM valinomycin
# Protocol: DiSC3(5) is a fluorescent probe often used as a tracer dye to assess the mitochondrial membrane potential ([71]); therefore, we assessed the effects of blapstin on the cell membrane potential changes of C. albicans ATCC 10231 using DiSC3(5) staining. C. albicans ATCC 10231 was cultured in YM medium to logarithmic stage in a constant-temperature shaking machine at 37°C, centrifuged at 1,000 × g for 5 min to remove the supernatant, and washed with normal saline three times, and then normal saline containing 100 mM potassium chloride (KCl) was used to dilute the bacterial solution to an optical density at 600 nm (OD600) of 0.1. DiSC3(5) dye was dissolved by dimethyl sulfoxide (DMSO) into the mother solution and normal saline diluted with 15% DMSO so that the final concentration of DiSC3(5) added to the bacterial solution was 0.5 μM. The mixture was added to a special fluorescent 96-well plate with 190 μL in each well. The excitation/emission wavelengths were set at 622/670 nm, measurement was carried out with a multifunctional fluorescent enzyme labeling instrument (SynergyH1; Biotek, USA) until the value of the enzyme marker was stable, and then measurement was continued for 20 min. The final concentrations were 16× MIC, 8× MIC, and 1× MIC when 10 μL blapstin was added to the experimental group. […]
# [6] = tested on: C. albicans; assay: Thermostability of antifungal activity (paper disk assay); type: physicochemical, Candida albicans; conditions: for Antifungal activity after heating: 20 μL of 225 μM, then paper disk assay on YM medium, 37°C, 18 h
# Protocol: (i) Effects of temperature. In the test of thermostability of antifungal activity, (20 μL(225 μM) of blapstin was heated at different temperatures (20°C, 40°C, 60°C, 80°C, 90°C, and 100°C) for 30 min and cooled down at 4°C ([63]). Colistin E was used as the positive control, and 1.5% NaCl was used as the negative control. Then, these samples were transferred to the paper disks in the YM solid medium with C. albicans and incubated at 37°C for 18 h for the assay of antifungal activity.
# [7] = tested on: human erythrocytes; assay: Hemolysis assay; type: cell-based; conditions: concentration as high as 56.25 μM, 30 min, 37°C; 1% Triton X-100 as maximum hemolysis; three independent experiments
# Protocol: As previously reported ([65], [67]), hemolytic activity and cytotoxicity assays were performed using human erythrocytes and mouse macrophages (RAW 264.7 cells). These cells were obtained from Kunming Medical University and Cell Bank of Kunming Institute of Zoology, Chinese Academy of Sciences, respectively. To investigate the hemolytic activity, washed erythrocytes were diluted with normal saline into a suspension of 10^7 to 10^8 cells/mL and mixed with serial dilutions of blapstin (from 1.76 μM to 225 μM) at a 1:1 ratio, followed by incubation for 30 min at 37°C. Then, these erythrocytes were centrifuged for 15 min at 500 × g (Eppendorf, Germany; FA-45-24-11, 4°C). Next, the supernatant was collected, and the hemolysis rate (%) was measured to quantify the hemolysis of blapstin. The maximum hemolysis rate was determined using an equal volume of 1% Triton X-100 as a positive control, and the zero hemolysis rate was determined using sterile normal saline as a negative control. Hemolytic activity was calculated using the following formula: hemolysis rate (%) = (hemolysis of experimental group-negative control)/(hemolysis of positive control-negative control) × 100%. HC50 values were defined as the peptide concentrations causing 50% hemolysis of human erythrocytes.
sequence,measurement,setting,value
"VRVGPCDQVCSRTNPEKDECCRAHGHSGHSSCYGGRMNCYG (disulfide 6-21, 10-32, 20-39 (inferred)) [Blapstin]",Eradication of established biofilms of C. albicans,[1],disrupted established biofilms
same,Sensitivity of antifungal activity to protease,[2],insensitive
same,Sensitivity of antifungal activity to protease,[3],insensitive
same,Residual antifungal activity after incubation in human plasma,"[4]; 37°C, 24 h, inhibition zone against C. albicans ATCC 10231, triplicate",did not completely disappear
same,Stability in human plasma,"[4]; 8 h at 37°C, inhibition zone against C. albicans ATCC 10231",high stability
same,Cellular DiSC3(5) fluorescence (membrane potential) compared with negative control,[5],increased significantly
same,Antifungal activity after heating,[6]; 20°C to 90°C for 30 min,full antifungal activity was retained
same,Antifungal activity after heating,[6]; 100°C for 30 min,slightly reduced
same,Thermostable up to,"[6]; heated 30 min, read-out antifungal activity toward C. albicans",up to 90 °C
same,Hemolytic activity against human erythrocytes,[7],little hemolytic activity
